Reference: US20250098679A1, “HERBICIDAL PYRIDONE DERIVATIVES” (SYNGENTA CROP PROTECTION AG, priority 2021, published 2025)

What was measured:
Format in all cases: in vivo
Conditions in all cases: evaluated after 13 days
Setaria faberi (SETFA) [1] = experiment: Pre-emergence Test, Setaria faberi (SETFA)
[2] = test system: Echinochloa crus-galli (ECHCG); experiment: Pre-emergence Test, Echinochloa crus-galli (ECHCG)
Zea mays (ZEAMX) [3] = experiment: Pre-emergence Test, Zea mays (ZEAMX)
[4] = test system: Ipomoea hederacea (IPOHE); experiment: Pre-emergence Test, Ipomoea hederacea (IPOHE)
[5] = test system: Amaranthus palmeri (AMAPA); experiment: Pre-emergence Test, Amaranthus palmeri (AMAPA)
[6] = test system: Amaranthus retoflexus (AMARE); experiment: Pre-emergence Test, Amaranthus retoflexus (AMARE)
Setaria faberi (SETFA) [7] = experiment: Post-emergence Test, Setaria faberi (SETFA); set-up: key to percentage damage caused to the plant, SETFA (five-point scale): 5=81-100%, 4=61-80%, 3=41-60%, 2=21-40%, 1=0-20% damage
In short: (§1)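 Scores are percentage plant damage on a 1–5 scale (1=0-20%, 2=21-40%, 3=41-60%, 4=61-80%, 5=81-100%), read 13 days after treatment. Pots received a spray at 1000 g/ha unless otherwise stated, formulated in acetone/water (50:50) containing 0.5% Tween 20.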

[8] = test system: Echinochloa crus-galli (ECHCG); experiment: Post-emergence Test, Echinochloa crus-galli (ECHCG); set-up: key to percentage damage caused to the plant, ECHCG (five-point scale): 5=81-100%, 4=61-80%, 3=41-60%, 2=21-40%, 1=0-20% damage
In short: as §1

Zea mays (ZEAMX) [9] = experiment: Post-emergence Test, Zea mays (ZEAMX); set-up: key to percentage damage caused to the plant, ZEAMX (five-point scale): 5=81-100%, 4=61-80%, 3=41-60%, 2=21-40%, 1=0-20% damage
In short: as §1

[10] = test system: Ipomoea hederacea (IPOHE); experiment: Post-emergence Test, Ipomoea hederacea (IPOHE); set-up: key to percentage damage caused to the plant, IPOHE (five-point scale): 5=81-100%, 4=61-80%, 3=41-60%, 2=21-40%, 1=0-20% damage
In short: as §1

[11] = test system: Amaranthus palmeri (AMAPA); experiment: Post-emergence Test, Amaranthus palmeri (AMAPA); set-up: key: 5=81-100%, 4=61-80%, 3=41-60%, 2=21-40%, 1=0-20% damage
In short: as §1

[12] = test system: Amaranthus retoflexus (AMARE); experiment: Post-emergence Test, Amaranthus retoflexus (AMARE); set-up: key to percentage damage caused to the plant, AMARE (five-point scale): 5=81-100%, 4=61-80%, 3=41-60%, 2=21-40%, 1=0-20% damage
In short: as §1

Structure (SMILES) | Pre-emergence Test SETFA, percentage damage caused to the plant (five-point scale) (Setaria faberi (SETFA) [1]; 250 g/Ha (*)) | Pre-emergence Test SETFA, percentage damage caused to the plant (five-point scale) (Setaria faberi (SETFA) [1]; 1000 g/ha) | Pre-emergence Test ECHCG, percentage damage caused to the plant (five-point scale) ([2]; 250 g/Ha (*)) | Pre-emergence Test ECHCG, percentage damage caused to the plant (five-point scale) ([2]; 1000 g/ha) | Pre-emergence Test ZEAMX, percentage damage caused to the plant (five-point scale) (Zea mays (ZEAMX) [3]; 1000 g/ha) | Pre-emergence Test IPOHE, percentage damage caused to the plant (five-point scale) ([4]; 1000 g/ha) | Pre-emergence Test AMAPA, percentage damage caused to the plant (five-point scale) ([5]; 1000 g/ha) | Pre-emergence Test AMARE, percentage damage caused to the plant (five-point scale) ([6]; 1000 g/ha) | percentage damage caused to the plant, SETFA (five-point scale) (Setaria faberi (SETFA) [7]; 250 g/Ha) | percentage damage caused to the plant, SETFA (five-point scale) (Setaria faberi (SETFA) [7]; 1000 g/ha) | percentage damage caused to the plant, ECHCG (five-point scale) ([8]; 250 g/Ha) | percentage damage caused to the plant, ECHCG (five-point scale) ([8]; 1000 g/ha) | percentage damage caused to the plant, ZEAMX (five-point scale) (Zea mays (ZEAMX) [9]; 250 g/Ha) | percentage damage caused to the plant, ZEAMX (five-point scale) (Zea mays (ZEAMX) [9]; 1000 g/ha) | percentage damage caused to the plant, IPOHE (five-point scale) ([10]; 250 g/Ha) | percentage damage caused to the plant, IPOHE (five-point scale) ([10]; 1000 g/ha) | percentage damage caused to the plant, AMAPA (five-point scale) ([11]; 250 g/Ha) | percentage damage caused to the plant, AMAPA (five-point scale) ([11]; 1000 g/ha) | percentage damage caused to the plant, AMARE (five-point scale) ([12]; 250 g/Ha) | percentage damage caused to the plant, AMARE (five-point scale) ([12]; 1000 g/ha) | further results
CCCOc1ccn(Cc2cc(=O)c(C(=O)O)c(-c3ccc(Cl)c(Cl)c3)n2CC)n1 [Compound 160, 2-(3,4-dichlorophenyl)-1-ethyl-4-oxo-6-[(3-propoxypyrazol-1-yl)methyl]pyridine-3-carboxylic acid] | 2 (2=21-40%) | 5 (5=81-100%) | 2 (2=21-40%) | 5 (5=81-100%) | 3 (3=41-60%) | 2 (2=21-40%) | 0 | 1 (1=0-20%) | 2 (2=21-40%) | 4 (4=61-80%) | 2 (2=21-40%) | 4 (4=61-80%) | 1 (1=0-20%) | 4 (4=61-80%) | 3 (3=41-60%) | 3 (3=41-60%) | 0 | 1 (1=0-20%) | 0 | 1 (1=0-20%) | Pre-emergence Test ZEAMX, percentage damage caused to the plant (five-point scale) (Zea mays (ZEAMX) [3]; 250 g/Ha (*)): 0; Pre-emergence Test IPOHE, percentage damage caused to the plant (five-point scale) ([4]; 250 g/Ha (*)): 2 (2=21-40%); Pre-emergence Test AMAPA, percentage damage caused to the plant (five-point scale) ([5]; 250 g/Ha (*)): 0; Pre-emergence Test AMARE, percentage damage caused to the plant (five-point scale) ([6]; 250 g/Ha (*)): 0
CCn1c(Cn2ccc(OCCOC)n2)cc(=O)c(C(=O)O)c1-c1ccc(Cl)c(Cl)c1 [Compound 161, 2-(3,4-dichlorophenyl)-1-ethyl-6-[[3-(2-methoxyethoxy)pyrazol-1-yl]methyl]-4-oxo-pyridine-3-carboxylic acid] | 1 (1=0-20%) | 4 (4=61-80%) | 0 | 3 (3=41-60%) | 0 | 3 (3=41-60%) | 1 (1=0-20%) | 0 | 2 (2=21-40%) | 3 (3=41-60%) | 2 (2=21-40%) | 3 (3=41-60%) | 1 (1=0-20%) | 1 (1=0-20%) | 1 (1=0-20%) | 3 (3=41-60%) | 0 | 1 (1=0-20%) | 1 (1=0-20%) | 0 | Pre-emergence Test ZEAMX, percentage damage caused to the plant (five-point scale) (Zea mays (ZEAMX) [3]; 250 g/Ha (*)): 0; Pre-emergence Test IPOHE, percentage damage caused to the plant (five-point scale) ([4]; 250 g/Ha (*)): 0; Pre-emergence Test AMAPA, percentage damage caused to the plant (five-point scale) ([5]; 250 g/Ha (*)): 0; Pre-emergence Test AMARE, percentage damage caused to the plant (five-point scale) ([6]; 250 g/Ha (*)): 0
C=CCOc1ccn(Cc2cc(=O)c(C(=O)O)c(-c3ccc(Cl)c(Cl)c3)n2CC)n1 [Compound 163, 6-[(3-allyloxypyrazol-1-yl)methyl]-2-(3,4-dichlorophenyl)-1-ethyl-4-oxo-pyridine-3-carboxylic acid] | 0 | 3 (3=41-60%) | 1 (1=0-20%) | 4 (4=61-80%) | 2 (2=21-40%) | 3 (3=41-60%) | 0 | 0 |  | 4 (4=61-80%) |  | 3 (3=41-60%) |  | 1 (1=0-20%) |  | 2 (2=21-40%) |  | 1 (1=0-20%) |  | 1 (1=0-20%) | Pre-emergence Test ZEAMX, percentage damage caused to the plant (five-point scale) (Zea mays (ZEAMX) [3]; 250 g/Ha (*)): 0; Pre-emergence Test IPOHE, percentage damage caused to the plant (five-point scale) ([4]; 250 g/Ha (*)): 1 (1=0-20%); Pre-emergence Test AMAPA, percentage damage caused to the plant (five-point scale) ([5]; 250 g/Ha (*)): 0; Pre-emergence Test AMARE, percentage damage caused to the plant (five-point scale) ([6]; 250 g/Ha (*)): 0
CCn1c(Cn2nc(C(F)(F)F)cc2Cl)cc(=O)c(C(=O)O)c1-c1ccc(Cl)c(Cl)c1 [Compound 169, 6-[[5-chloro-3-(trifluoromethyl)pyrazol-1-yl]methyl]-2-(3,4-dichlorophenyl)-1-ethyl-4-oxo-pyridine-3-carboxylic acid] | 5 (5=81-100%) |  | 4 (4=61-80%) |  |  |  |  |  | 4 (4=61-80%) |  | 3 (3=41-60%) |  | 4 (4=61-80%) |  | 4 (4=61-80%) |  | 3 (3=41-60%) |  | 3 (3=41-60%) |  | Pre-emergence Test ZEAMX, percentage damage caused to the plant (five-point scale) (Zea mays (ZEAMX) [3]; 250 g/Ha (*)): 0; Pre-emergence Test IPOHE, percentage damage caused to the plant (five-point scale) ([4]; 250 g/Ha (*)): 1 (1=0-20%); Pre-emergence Test AMAPA, percentage damage caused to the plant (five-point scale) ([5]; 250 g/Ha (*)): 1 (1=0-20%); Pre-emergence Test AMARE, percentage damage caused to the plant (five-point scale) ([6]; 250 g/Ha (*)): 1 (1=0-20%)
COCCn1c(Cn2ccc(C(F)(F)F)n2)cc(=O)c(C(=O)O)c1-c1ccc(Cl)c(Cl)c1 [Compound 170, 2-(3,4-dichlorophenyl)-1-(2-methoxyethyl)-4-oxo-6-[[3-(trifluoromethyl)pyrazol-1-yl]methyl]pyridine-3-carboxylic acid] |  | 4 (4=61-80%) |  | 3 (3=41-60%) | 0 | 2 (2=21-40%) | 0 | 0 | 3 (3=41-60%) | 4 (4=61-80%) | 3 (3=41-60%) | 4 (4=61-80%) | 0 | 1 (1=0-20%) | 3 (3=41-60%) | 3 (3=41-60%) | 0 | 1 (1=0-20%) | 0 | 1 (1=0-20%) | 
COCCn1c(Cn2ccc(Cl)n2)cc(=O)c(C(=O)O)c1-c1ccc(Cl)c(Cl)c1 [Compound 171, 6-[(3-chloropyrazol-1-yl)methyl]-2-(3,4-dichlorophenyl)-1-(2-methoxyethyl)-4-oxo-pyridine-3-carboxylic acid] |  | 4 (4=61-80%) |  | 1 (1=0-20%) | 1 (1=0-20%) | 0 | 0 | 1 (1=0-20%) | 0 | 3 (3=41-60%) | 1 (1=0-20%) | 3 (3=41-60%) | 1 (1=0-20%) | 1 (1=0-20%) | 1 (1=0-20%) | 1 (1=0-20%) | 0 | 0 | 0 | 0 | 
